{"source": "patent US20050004017A1", "about": "“Methods and compositions for treating hcap associated diseases” (priority 2001, published 2005)", "system": "HCAP interaction with ErbB-2", "assay": "Co-immunoprecipitation of HCAP with anti-ErbB-2 antibody from radicicol-treated T47D cells", "format": "cell-based", "details": "T47D cells treated with radicicol (3 μM) for 0, 3 or 6 hours; gel electrophoresis, bands identified by mass spectroscopy", "procedure": "Band numbers 30 and 35 were identified by mass spectroscopic analysis as hepatocellular associated protein (HCAP). […] T47D cells, a breast cancer cell line that is mutant for the p53 tumor suppressor gene and ErbB-2 positive, were treated with radicicol (RA) for 0, 3 or 6 hours, and then proteins were immunoprecipitated using an anti-ErbB-2 antibody and resolved by gel electrophoresis. […] Band nos. 30 and 35 were identified by mass spectroscopic analysis to be hepatocarcinoma associated protein (HCAP). The amount of HCAP immunoprecipitated with anti-ErbB-2 antibody decreased in the presence of RA."}
{"smiles": "C[C@@H]1C[C@H]2O[C@@H]2/C=C\\C=C\\C(=O)Cc2c(Cl)c(O)cc(O)c2C(=O)O1", "note": "[radicicol, Radicicol]", "values": [{"measurement": "amount of HCAP immunoprecipitated with anti-ErbB-2 antibody", "result": "decreased"}]}
